According to article PMC8083960, “Kanamycin-Mediated Conformational Dynamics of Escherichia coli Outer Membrane Protein TolC” (Frontiers in Molecular Biosciences, 2021):

Target: T1, TolC (Escherichia coli, UniProt P02930)
T1 construct: ~54 kDa by SDS-PAGE and MALDI; crystal structure cited as trimer, 471 residues per monomer
Experiment: isothermal titration calorimetry
Type: binding
Text: isothermal titration calorimetry on TolC

T1 sequence (P02930 23-493): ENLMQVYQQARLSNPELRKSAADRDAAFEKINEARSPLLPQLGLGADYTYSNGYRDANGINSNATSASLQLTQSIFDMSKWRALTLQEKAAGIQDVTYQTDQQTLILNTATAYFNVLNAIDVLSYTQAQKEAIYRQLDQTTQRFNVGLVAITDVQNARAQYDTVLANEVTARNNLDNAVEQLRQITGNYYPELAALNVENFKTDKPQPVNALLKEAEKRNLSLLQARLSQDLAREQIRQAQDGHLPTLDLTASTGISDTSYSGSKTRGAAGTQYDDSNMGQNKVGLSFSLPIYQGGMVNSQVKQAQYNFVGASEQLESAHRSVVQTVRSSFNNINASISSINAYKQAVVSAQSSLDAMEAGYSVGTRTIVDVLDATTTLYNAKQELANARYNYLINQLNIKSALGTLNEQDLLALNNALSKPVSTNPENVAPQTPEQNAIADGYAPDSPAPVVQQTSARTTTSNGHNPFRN

`NC[C@H]1O[C@H](O[C@H]2[C@H](O)[C@@H](O[C@H]3O[C@H](CO)[C@@H](O)[C@H](N)[C@H]3O)[C@H](N)C[C@@H]2N)[C@H](O)[C@@H](O)[C@@H]1O` [kanamycin] showed a Kd of 42.7 µM.
